Test results as given in patent US11167133B2, “Intratumoral modulation therapy” (LONDON HEALTH SCIENCES CENTRE RESEARCH INC., priority 2015, dated 2021).

Legend:
[1] = tested on: primary patient GBM cells; test: Annexin V / propidium iodide flow cytometry of apoptotic and dead cells; assay type: cell-based, human; details: 72 h; for combined fraction of apoptotic (annexin+) and dead (annexin+ and PI+) GBM cells: mean±SD, cells from 3 patients
Excerpt: (§1) This study was approved by the Research Ethics Board at the University of Western Ontario (Approval #17290). GBM specimens were obtained at the time of operative resection and placed immediately into phosphate-buffered saline (PBS) with 0.5% fetal bovine serum (FBS; Life Technologies, Burlington, ON, Canada). The tissue was washed, digested and filtered through a 100-μm cell strainer. Samples were then centrifuged and resuspended in Dulbecco's modified Eagle's medium (DMEM; Wisent Bioproducts, St. Bruno, PQ, Canada) supplemented with 10% FBS, 1% non-essential amino acids and 1% penicillin/streptomycin (Life Technologies) before plating to a 35-mm dish for 30 min to allow blood cells to separate. The upper cell suspension was then transferred to two wells of a 24-well plate, freshly pre-coated with 10 μg/ml poly-L-lysine (Trevigen Inc., Gaithersburg, Md., USA) and incubated at 37° C. with 5% CO2. Cultures were passaged at approximately 80% confluence and split 1:2 using 0.25% trypsin with 0.53 mM ethylenediaminetetraacetic acid (EDTA; Wisent). The medium was changed twice per week. All assays were conducted using GBM cells from cultures at passages 4 through 12.
GBM cells (2×10^5 cells in 2 ml maintenance DMEM) were transferred to the 35 mm wells in standard 6-well plates and allowed to grow to ˜70% confluence before treatment. A clinical grade, platinum-based reference strip electrode (AD-Tech, Racine, Wis., USA) around the periphery and a stimulating electrode (Medtronic Ltd., Brampton, ON, Canada) in the centre of the well. The electrodes were connected to a waveform generator set to produce monophasic, square-wave pulses of 4 volts, with pulse width of 90 μsec and frequency of 130 Hz. This setting is in the range of that commonly used in clinical neuromodulation treatment for symptoms of movement disorders, such as Parkinson's disease (11). Control wells (i.e. sham-treated) were fitted with electrodes but no current was delivered. Treatment durations between 24-96 h were used to allow adequate time for antitumor effect while avoiding the need for medium change once IMT was initiated. Thus, all intact GBM cells, adherent and floating, contributed to the viability measures described below. GBM cells treated with chemotherapy were plated with DMEM containing temozolomide (50 μM; Sigma Aldrich) in 35 mm wells fitted with the IMT apparatus and received 72 h of concomitant IMT or sham conditions. The 50 μM temozolomide concentration reflects clinically relevant levels corresponding to the in vivo plasma concentration of 150 mg/m2 in the adjuvant phase of GBM treatment (24).
An Annexin V Apoptosis Detection Kit with propidium iodide (PI; BioLegend, San Diego, Calif., USA) was used for identification of apoptotic and dead cells, as per the manufacturer's instructions. Cell fractions were analyzed using a Becton Dickinson LSR II SORP flow cytometer running FACSDiva software (BD Biosciences, Mississauga, ON, Canada). Cells were first gated on forward scatter (FSC-) versus side scatter (SSC-) characteristics before excluding doublets using consecutive gating FSC-Area versus FSC-Width and SSC-Area versus SSC-Width plots. The populations of annexin V+/PI−, annexin V+/PI+, annexin V−/PI+ and annexin V−/PI− were then calculated with quadrant gates. Approximately 30,000 single cells were acquired per sample at a maximum event rate of 5,000 events per second. Data were analyzed using FlowJo v 9.6.3 (TreeStar, Inc., Ashland, Oreg., USA).

[2] = tested on: primary patient GBM cells; test: MTT cell viability assay; assay type: cell-based, human; details: 72 h, mean±SD, 3 patients
Excerpt: as §1, with “Cultures were passaged at approximately 80% confluence and split 1:2 using 0.25% trypsin with 0.53 mM ethylenediaminetetraacetic acid (EDTA; Wisent). The medium was changed twice per week. All assays were conducted using GBM cells from cultures at passages 4 through 12.” left out
Primary human patient GBM cells (1×10^5 cells in 2 ml maintenance DMEM) were seeded into one 35 mm well equipped with the IMT system and allowed to grow to ˜70% confluence. […] In the IMT-siRNA conditions, IMT was initiated at the time of transfection and maintained for the entire 48 h, after which the extent of target knockdown and GBM cell viability were assessed.
Cell viability was evaluated using the 3-(4,5-dimethylthiazol-2-yl)-2,5-diphenyltetrazolium (MTT) spectral analysis (Sigma Aldrich). […]

[3] = temozolomide 50 μM combined with IMT (4 V, 130 Hz)
[4] = temozolomide 50 μM, with concomitant IMT (4 V, 130 Hz), representative scatterplot
[5] = temozolomide 50 μM, without IMT, representative scatterplot

Cn1nnc2c(C(N)=O)ncn2c1=O [temozolomide]
combined fraction of apoptotic (annexin+) and dead (annexin+ and PI+) GBM cells ([1]; single-modality temozolomide 50 μM): 16.9±7.4% | combined fraction of apoptotic (annexin+) and dead (annexin+ and PI+) GBM cells [1, 3]: 52.4±21.8% | dead cells (annexin and PI-positive), FIG. 4 scatterplot [1, 4]: 16% | live cells, FIG. 4 scatterplot [1, 4]: 25.2% | apoptotic cells (annexin-positive), FIG. 4 scatterplot [1, 5]: 14.1% | dead cells (annexin and PI-positive), FIG. 4 scatterplot [1, 5]: 9.4% | live cells, FIG. 4 scatterplot [1, 5]: 76.1% | viability at 50 µM ([2]; Homo sapiens, temozolomide 50 μM alone, read-out: viability relative to untreated cells (MTT)): 69.7 ± 11.8% | viability relative to untreated cells (MTT) [2, 3]: 29.1±3.2%
